Experimental data reported in patent publication US20230078764A1 (Yumanity Therapeutics, Inc., priority 2019, published 2023).
Like-named read-outs stand apart in the source and are kept apart here.

Columns and labels:
[1] = molecular target: T1, human SCD5 (Homo sapiens, UniProt Q86SK9); assay: Growth inhibition of yeast strain expressing human SCD5 as sole desaturase (OLE1 deleted), OD600 readout; type: cell-based
T1 construct: expressed in transfected cells; host or cells: yeast strain with OLE1 deleted, plasmid-borne human SCD5 (selected in SD-Ura)
T1 sequence (Q86SK9 1-330): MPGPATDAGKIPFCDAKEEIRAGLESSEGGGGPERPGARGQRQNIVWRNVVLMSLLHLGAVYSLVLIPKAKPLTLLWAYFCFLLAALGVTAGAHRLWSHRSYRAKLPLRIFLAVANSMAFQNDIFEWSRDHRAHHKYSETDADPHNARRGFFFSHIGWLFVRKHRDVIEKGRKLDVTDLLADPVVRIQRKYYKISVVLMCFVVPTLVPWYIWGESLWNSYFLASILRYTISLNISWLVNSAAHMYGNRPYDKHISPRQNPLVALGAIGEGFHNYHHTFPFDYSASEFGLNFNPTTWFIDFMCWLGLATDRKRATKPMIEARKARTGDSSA

[2] = molecular target: T2, human SCD1 (Homo sapiens, UniProt O00767); assay: Growth inhibition of yeast strain expressing human SCD1 as sole desaturase (OLE1 deleted), OD600 readout; type: cell-based
T2 construct: expressed in transfected cells; host or cells: yeast strain with OLE1 deleted, plasmid-borne human SCD1 (selected in SD-Ura)
T2 sequence (O00767 1-359): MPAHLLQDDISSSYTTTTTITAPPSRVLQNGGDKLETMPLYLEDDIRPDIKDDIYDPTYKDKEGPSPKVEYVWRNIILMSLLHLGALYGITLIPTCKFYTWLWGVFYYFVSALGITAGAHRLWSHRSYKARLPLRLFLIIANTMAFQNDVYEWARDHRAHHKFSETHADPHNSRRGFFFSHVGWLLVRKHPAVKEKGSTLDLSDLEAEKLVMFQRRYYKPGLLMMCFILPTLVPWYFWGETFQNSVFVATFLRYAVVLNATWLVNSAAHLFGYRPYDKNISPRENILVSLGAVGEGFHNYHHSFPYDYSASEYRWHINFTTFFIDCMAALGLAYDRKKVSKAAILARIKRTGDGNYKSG

[3] = yeast strain expressing human SCD5 as sole desaturase, growth (OD600) after 40 h at 30° C., read-out: SCD5 IC50
[4] = yeast strain expressing human SCD1 as sole desaturase, growth (OD600) after 40 h at 30° C., read-out: SCD1 IC50

SMILES | IC50 [1, 3] [µM] | IC50 [2, 4] [µM] | IC50 ([1]; SCD5 IC50) [µM] | IC50 ([2]; SCD1 IC50) [µM]
CO[C@H]1C[C@@H](C(=O)Nc2ccc(Cc3cccc(F)c3)cn2)N(C)C1 [Compound 438] | > 45 | > 45 |  | 
O=C(Nc1ccc(Cc2ccc(F)c(F)c2)cn1)c1ccc2nncn2c1 [Compound 147, N-(5-(3,4-difluorobenzyl)pyridin-2-yl)-[1,2,4]triazolo[4,3-a]pyridine-6-carboxamide] | 0.04 | 0.31 |  | 
CO[C@H]1C[C@@H](C(=O)Nc2ccc(Cc3cccc(F)c3)cn2)N(C(=O)OC(C)(C)C)C1 [Compound 446] | > 45 | > 45 |  | 
C=Cc1cnc(C(=O)Nc2ccc(Cc3ccc(F)c(F)c3)cn2)nc1 [Compound 568] | 0.88 | 3.9 |  | 
CN1N=C(NC(=O)c2ccc(Cc3cccc(Cl)c3)nn2)CCC1=O [Compound 190, 6-(3-chlorobenzyl)-N-(1-methyl-6-oxo-1,4,5,6-tetrahydropyridazin-3-yl)pyridazine-3-carboxamide] | 33 | > 45 |  | 
CC(C)n1cc(C(=O)Nc2ccc(Oc3cccc(Cl)c3)cn2)ccc1=O [Compound 166, N-[5-(3-chlorophenoxy)pyridin-2-yl]-6-oxo-1-(propan-2-yl)-1,6-dihydropyridine-3-carboxamide] | 9.36 | 14.7 |  | 
N#Cc1cnc(C(=O)Nc2ccc(Cc3cc(F)cc(F)c3)cn2)cn1 [Compound 639] | 0.039 | 0.49 |  | 
COc1ccc(C(=O)Nc2ncc(Cc3cccc(F)c3)s2)nn1 [Compound 404] | > 45 | > 45 |  | 
CN1N=C(C(=O)Nc2ccc(Oc3cccc(Cl)c3)cn2)CCC1=O [Compound 157, N-(5-(3-chlorophenoxy)pyridin-2-yl)-1-methyl-6-oxo-1,4,5,6-tetrahydropyridazine-3-carboxamide] | 6.65 | > 45 |  | 
CN1N=C(C(=O)Nc2nc(Cc3cccc(F)c3)ns2)CCC1=O [Compound 408] | > 45 | > 45 |  | 
CN1N=C(C(=O)Nc2ncc(Cc3ccccc3F)s2)CCC1=O [Compound 206, N-(5-(2-fluorobenzyl)thiazol-2-yl)-1-methyl-6-oxo-1,4,5,6-tetrahydropyridazine-3-carboxamide] | 2.51 | 3.36 |  | 
CCn1ccc(C(=O)Nc2ccc(Cc3ccc(F)c(F)c3)cn2)n1 [Compound 98, N-(5-(3,4-difluorobenzyl)pyridin-2-yl)-1-ethyl-1H-pyrazole-3-carboxamide] | 0.04 | 2.96 |  | 
CN1N=C(C(=O)Nc2ccnc(Cc3cccc(Cl)c3)c2)CCC1=O [Compound 382] | > 45 | > 45 |  | 
O=C(Nc1ccc(Cc2cc(F)cc(F)c2)cn1)c1ccc2nncn2c1 [Compound 149, N-(5-(3,5-difluorobenzyl)pyridin-2-yl)-[1,2,4]triazolo[4,3-a]pyridine-6-carboxamide] | 0.01 | 0.23 |  | 
CN1N=C(NC(=O)c2ccc(Cc3cccc(Cl)c3)cn2)CCC1=O [Compound 86, 5-(3-Chlorobenzyl)-N-(1-methyl-6-oxo-1,4,5,6-tetrahydropyridazin-3-yl)picolinamide] | 0.07 | 9.69 |  | 
CN1N=C(C(=O)Nc2ccc(Cc3cc(Cl)ccc3F)nn2)CCC1=O [Compound 177, N-(6-(5-chloro-2-fluorobenzyl)pyridazin-3-yl)-1-methyl-6-oxo-1,4,5,6-tetrahydropyridazine-3-carboxamide] | 5.49 | > 45 |  | 
COC(C)(c1cccc(F)c1)c1cnc(NC(=O)C2=NN(C)C(=O)CC2)s1 (stereo not drawn) [Compound 424] | > 45 | > 45 |  | 
CCn1cc(C(=O)Nc2ccc(Cc3cccc(Cl)c3)nn2)ccc1=O [Compound 184, N-(6-(3-chlorobenzyl)pyridazin-3-yl)-1-ethyl-6-oxo-1,6-dihydropyridine-3-carboxamide] | 28.9 | > 45 |  | 
Cn1nc(NC(=O)N[C@H]2CC[C@@H](Cc3cccc(Cl)c3)CC2)ccc1=O [Compound 322] | 6.07 | 12.7 |  | 
CN1N=C(C(=O)Nc2nnc(Cc3cccc(Cl)c3)o2)CCC1=O [Compound 409] | > 45 | > 45 |  | 
CN1N=C(C(=O)Nc2ncc(C(O)c3cccc(F)c3)s2)CCC1=O (stereo not drawn) [Compound 205, N-(5-((3-fluorophenyl)(hydroxy)methyl)thiazol-2-yl)-1-methyl-6-oxo-1,4,5,6-tetrahydropyridazine-3-carboxamide] | 29.4 | > 45 |  | 
CCCn1nc(C(=O)Nc2ccc(Cc3cccc(Cl)c3)nn2)ccc1=O [Compound 257] | 4.36 | > 45 |  | 
Cn1cc(C(=O)Nc2ccc(Cc3ccc(F)c(Cl)c3)cn2)ccc1=O [Compound 60, N-(5-(3-chloro-4-fluorobenzyl)pyridin-2-yl)-1-methyl-6-oxo-1,6-dihydropyridine-3-carboxamide] |  |  | 0.65 | 4.38

Second part, led by results:

IC50 [1, 3] [µM] | IC50 [2, 4] [µM] | SMILES | IC50 ([1]; SCD5 IC50) [µM] | IC50 ([2]; SCD1 IC50) [µM]
0.284 | > 45 | Cc1cc(C(=O)Nc2ccc(Cc3cc(F)cc(C#N)c3)cn2)nn(C)c1=O [Compound 609] |  | 
0.06 | 0.36 | CC(O)c1ccc(C(=O)Nc2ccc(Cc3ccc(F)c(Cl)c3)cn2)cn1 (stereo not drawn) [Compound 522] |  | 
> 45 | > 45 | Cn1cc(C(=O)Nc2nnc(Cc3cccc(F)c3)s2)ccc1=O [Compound 461] |  | 
0.1 | 1.71 | Cc1ccc(C(=O)Nc2ccc(Cc3cccc(F)c3)cn2)nn1 [Compound 145, N-(5-(3-fluorobenzyl)pyridin-2-yl)-6-methylpyridazine-3-carboxamide] |  | 
5.22 | > 45 | CN(c1ccc(NC(=O)c2ccc(=O)n(C)n2)nc1)c1cccc(F)c1 [Compound 301] |  | 
0.01 | 0.019 | O=C(Nc1ccc(Cc2cc(F)cc(F)c2)cn1)c1cncc(CO)c1 [Compound 580] |  | 
0.01 | 0.22 | Cn1ccc(C(=O)Nc2ccc(Cc3cc(F)cc(F)c3)cn2)cc1=O [Compound 533] |  | 
0.019 | 0.232 | Cc1cc(C(=O)Nc2ccc(Cc3cccc(F)c3)cn2)cn(C)c1=O [Compound 623] |  | 
0.6 | 3.4 | Cc1cc(C(=O)Nc2ccc(Cc3ccc(F)c(C#N)c3)cn2)nn(C)c1=O [Compound 610] |  | 
0.82 | 10 | C=C(c1ccc(C(=O)Nc2ccc(Cc3cccc(Cl)c3)cn2)cn1)C(F)(F)F [Compound 499] |  | 
0.01 | 0.06 | Cn1nc(C(=O)Nc2ccc(Cc3cc(F)c(F)c(Cl)c3)cn2)ccc1=O [Compound 528] |  | 
0.86 | > 45 | CN1N=C(C(=O)Nc2ccc(CCc3cccc(Cl)c3)cn2)CCC1=O [Compound 296] |  | 
0.02 | 0.65 | Cn1nc(NC(=O)c2ccc(Cc3cccc(F)c3)cn2)ccc1=O [Compound 88, 5-(3-Fluorobenzyl)-N-(1-methyl-6-oxo-1,6-dihydropyridazin-3-yl)picolinamide] |  | 
14.5 | > 45 | Cn1nc(C(=O)Nc2ccc(CCOc3ccccc3)cn2)ccc1=O [Compound 362] |  | 
> 45 | > 45 | CN1N=C(C(=O)Nc2ccc(Cc3ccc(C#N)c(F)c3)cn2)CCC1=O [Compound 470] |  | 
1.6 | 28 | Cn1cc(C(=O)Nc2ccc(COc3ccccc3)cn2)ccc1=O [Compound 600] |  | 
> 45 | > 45 | Cn1c(C(=O)Nc2ccc(Cc3cccc(Cl)c3)cn2)cc(=O)n1C [Compound 460] |  | 
0.17 | 6.05 | O=C(Nc1ccc(Cc2cccc(F)c2)cn1)c1cnc2nsnc2c1 [Compound 358] |  | 
0.18 | 1.6 | Cn1nc(C(=O)Nc2ccc(COc3cc(F)cc(F)c3)cn2)ccc1=O [Compound 658] |  | 
0.49 | 17 | Cn1nc(C(=O)Nc2ccc(Cc3ccc(F)cc3F)cn2)ccc1=O [Compound 537] |  | 
6.59 | 32.6 | Cn1nc(C(=O)Nc2ccc(CCOc3cccc(F)c3)cn2)ccc1=O [Compound 360] |  | 
> 45 | > 45 | Cn1cc(C(=O)Nc2ccc(COc3ccc(F)cc3)cn2)ccc1=O [Compound 452] |  | 
1.4 | > 45 | Cn1nc(C(=O)Nc2ccc(C3(c4ccc(F)c(F)c4)CC3)cn2)ccc1=O [Compound 653] |  | 
0.5 | 9.54 | CN1N=C(C(=O)Nc2ccc(Cc3ccc(F)c(C#N)c3)cn2)CCC1=O [Compound 10, N-(5-(3-cyano-4-fluorobenzyl)pyridin-2-yl)-1-methyl-6-oxo-1,4,5,6-tetrahydropyridazine-3-carboxamide] |  | 
0.49 | > 45 | Cc1cc(C(=O)Nc2ccc(Cc3cc(F)cc(C#N)c3)cn2)cnc1Cl [Compound 665] |  | 
